From patent US9302999B2, “Substituted triazoles as herbicides” (E. I. DU PONT DE NEMOURS AND COMPANY, priority 2012, dated 2016)

Tests used:
[1] = test system: pigweed (Amaranthus retroflexus); experiment: Test A pre-/postemergence: pigweed; format: in vivo
In short: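 Whole-plant greenhouse assay in loam/sand. Preemergence directed soil spray plus simultaneous postemergence spray (one- to two-leaf stage, 2–10 cm). Rated visually ~10 days later, 0 = no effect, 100 = complete control.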

[2] = test system: blackgrass (Alopecurus myosuroides); experiment: Test C pre-/postemergence: blackgrass; format: in vivo
In short: (§1)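 Visual injury scored 0–100 (100 = complete control) against untreated controls after 13–15 greenhouse days. Surfactant-containing solvent formulations applied either to soil after sowing (loam/sand) or over 1- to 4-leaf plants, 2–18 cm tall.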

[3] = test system: rice (Oryza sativa); experiment: Test B flooded paddy: rice; format: in vivo; settings: Flood; 250 g ai/ha; applied to paddy water at 2-leaf stage; visually evaluated after 13 to 15 days
In short: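 Two-leaf-stage plants, pots flooded (3 cm above soil) and treated through the water, which stayed at that depth. After 13–15 days in greenhouse conditions, visual assessment versus controls: 0 is no effect, 100 complete control, dash means no result.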

[4] = test system: Barnyardgrass; experiment: Test C preemergence: barnyardgrass; format: in vivo, Echinochloa crus-galli
Source text: Seeds of plant species selected from blackgrass (Alopecurus myosuroides), bromegrass, downy (downy bromegrass, Bromus tectorum), foxtail, green (green foxtail, Setaria viridis), ryegrass, Italian (Italian ryegrass, Lolium multiflorum), winter wheat (Triticum aestivum), wild oat (Avena fatua), galium (catchweed bedstraw, Galium aparine), bermudagrass (Cynodon dactylon), surinam grass (Brachiaria decumbens), cocklebur (common cocklebur, Xanthium strumarium), corn (Zea mays), large crabgrass (Digitaria sanguinalis), woolly cupgrass (Eriochloa villosa), foxtail, giant (giant foxtail, Setaria faberii), goosegrass (Eleusine indica), johnsongrass (Sorghum halepense), kochia (Kochia scoparia), lambsquarters (Chenopodium album), morningglory (Ipomoea coccinea), nightshade (eastern black nightshade, Solanum ptycanthum), nutsedge, yellow (yellow nutsedge, Cyperus esculentus), pigweed (Amaranthus retroflexus), ragweed (common ragweed, Ambrosia elation), soybean (Glycine max), common (oilseed) sunflower (Helianthus annuus), Russian thistle (Salsola kali) and velvetleaf (Abutilon theophrasti) were planted into a blend of loam soil and sand and treated preemergence with test chemicals formulated in a non-phytotoxic solvent mixture which included a surfactant.
Treated plants and controls were maintained in a greenhouse for 13 to 15 days, after which time all species were compared to controls and visually evaluated. Plant response ratings, summarized in Table C, are based on a scale of 0 to 100 where 0 is no effect and 100 is complete control. A dash (-) response means no test result.

[5] = test system: morningglory (Ipomoea coccinea); experiment: Test C pre-/postemergence: morningglory; format: in vivo
In short: as §1

[6] = test system: ragweed (common ragweed, Ambrosia elation); experiment: Test C pre-/postemergence: ragweed; format: in vivo
In short: as §1

[7] = test system: galium (catchweed bedstraw, Galium aparine); experiment: Test C pre-/postemergence: galium; format: in vivo
In short: as §1

[8] = test system: pigweed (Amaranthus retroflexus); experiment: Test C pre-/postemergence: pigweed; format: in vivo
In short: as §1

[9] = test system: nutsedge, yellow (yellow nutsedge, Cyperus esculentus); experiment: Test C pre-/postemergence: nutsedge, yellow; format: in vivo
In short: as §1

[10] = test system: winter wheat (Triticum aestivum); experiment: Test C pre-/postemergence: winter wheat; format: in vivo
In short: as §1

[11] = test system: wild oat (Avena fatua); experiment: Test C pre-/postemergence: wild oat; format: in vivo; settings: Postemergence
In short: as §1

[12] = Postemergence, 31 g ai/ha, scale 0 to 100 (0 no effect, 100 complete control)
[13] = Postemergence, 62 g ai/ha, scale 0 to 100 (0 no effect, 100 complete control)
[14] = Postemergence, 125 g ai/ha, scale 0 to 100, 0 no effect, 100 complete control
[15] = Preemergence, 31 g ai/ha, scale 0 (no effect) to 100 (complete control)
[16] = Preemergence, 62 g ai/ha, scale of 0 to 100, 0 is no effect, 100 is complete control
[17] = Preemergence, 125 g ai/ha, scale 0 to 100, 0 no effect, 100 complete control
[18] = Preemergence, 250 g ai/ha, scale 0 to 100, 0 no effect, 100 complete control
[19] = 125 g ai/ha, scale 0 to 100, 0 no effect, 100 complete control
[20] = Postemergence, 250 g ai/ha, scale 0 to 100 (0 no effect, 100 complete control)

In the case of `CCCc1nn(-c2ccc(C(F)(F)F)cc2)nc1Oc1ccnc(C(F)(F)F)c1` [Compound 170], the “Plant response rating, Pigweed” value ([1]; Postemergence, 125 g ai/ha, 0 to 100 scale, 0 is no effect, 100 is complete control) is reported as 100, the “Pigweed plant response rating” value ([1]; Postemergence, 500 g ai/ha, 0 to 100 scale, 0 is no effect, 100 is complete control) is reported as 100 and the “Plant response rating, Pigweed” value ([1]; Preemergence, 125 g ai/ha, 0 to 100 scale where 0 is no effect and 100 is complete control) is reported as 100. The “Plant response rating, Pigweed” value ([1]; Preemergence, 500 g ai/ha, 0 to 100 scale (0 no effect, 100 complete control)) was 100, the “Plant response rating, Blackgrass” value [2, 12] was 10 and the “Plant response rating, Blackgrass” value [2, 13] was 10. For the same molecule, the “Plant response rating, Blackgrass” value [2, 14] was 60, the “Plant response rating, Blackgrass” value ([2]; Postemergence, 250 g ai/ha, scale 0 to 100) was 70 and the “Plant response rating, Blackgrass” value [2, 15] was 90. For the same molecule, the “Plant response rating, Blackgrass” value [2, 16] was 95, the “Plant response rating, Blackgrass” value [2, 17] was 100 and the “Plant response rating, Blackgrass” value [2, 18] was 100. The “Plant response rating, Rice (0 to 100 scale, 0 is no effect, 100 is complete control)” value [3] was 60, the “Plant response rating, Barnyardgrass” value ([4]; 31 g ai/ha, scale 0 (no effect) to 100 (complete control)) was 80 and the “Plant response rating, Barnyardgrass” value ([4]; 62 g ai/ha, scale of 0 to 100, 0 is no effect, 100 is complete control) was 98. For the same molecule, the “Plant response rating, Barnyardgrass” value [4, 19] was 100, the “Plant response rating, Morningglory” value [5, 12] was 75 and the “Plant response rating, Morningglory” value [5, 13] was 98. For the same molecule, the “Plant response rating, Morningglory” value [5, 14] was 100, the “Plant response rating, Morningglory” value [5, 20] was 100 and the “Plant response rating, Morningglory” value [5, 15] was 35. The “Plant response rating, Morningglory” value [5, 16] was 55, the “Plant response rating, Morningglory” value [5, 17] was 100 and the “Plant response rating, Morningglory” value [5, 18] was 100. The “Plant response rating, Ragweed” value [6, 12] was 85, the “Plant response rating, Ragweed” value [6, 13] was 85 and the “Plant response rating, Ragweed” value [6, 14] was 90. For the same molecule, the “Plant response rating, Ragweed” value [6, 20] was 90, the “Plant response rating, Ragweed” value [6, 15] was 5 and the “Plant response rating, Ragweed” value [6, 16] was 60. For the same molecule, the “Plant response rating, Ragweed” value [6, 17] was 75, the “Plant response rating, Ragweed” value [6, 18] was 95 and the “Plant response rating, Galium” value [7, 12] was 80. For the same molecule, the “Plant response rating, Galium” value [7, 13] was 90, the “Plant response rating, Galium” value [7, 14] was 90 and the “Plant response rating, Galium” value [7, 20] was 90. For the same molecule, the “Plant response rating, Galium” value [7, 15] was 98, the “Plant response rating, Galium” value [7, 16] was 100 and the “Plant response rating, Galium” value [7, 17] was 100. The “Plant response rating, Galium” value [7, 18] was 100, the “Plant response rating, Pigweed” value [8, 12] was 100 and the “Plant response rating, Pigweed” value [8, 13] was 100. The “Plant response rating, Pigweed” value [8, 14] was 100, the “Plant response rating, Pigweed” value [8, 20] was 100 and the “Plant response rating, Pigweed” value [8, 15] was 100. The “Plant response rating, Pigweed” value [8, 16] was 100, the “Plant response rating, Pigweed” value [8, 17] was 100 and the “Plant response rating, Pigweed” value [8, 18] was 100. For the same molecule, the “Plant response rating, Nutsedge, Yellow” value [9, 12] was 5, the “Plant response rating, Nutsedge, Yellow” value [9, 13] was 5 and the “Plant response rating, Nutsedge, Yellow” value [9, 14] was 5. The “Plant response rating, Nutsedge, Yellow” value [9, 20] was 10, the “Plant response rating, Nutsedge, Yellow” value [9, 15] was 0 and the “Plant response rating, Nutsedge, Yellow” value [9, 16] was 5. The “Plant response rating, Nutsedge, Yellow” value [9, 18] was 5, the “Plant response rating, Wheat” value [10, 12] was 10 and the “Plant response rating, Wheat” value [10, 13] was 20. For the same molecule, the “Plant response rating, Wheat” value [10, 14] was 35, the “Plant response rating, Wheat” value [10, 20] was 35 and the “Plant response rating, Wheat” value [10, 15] was 10. The “Plant response rating, Wheat” value [10, 16] was 40, the “Plant response rating, Wheat” value [10, 17] was 60 and the “Plant response rating, Wheat” value [10, 18] was 60. For the same molecule, the “Plant response rating, Oat, Wild” value ([11]; 31 g ai/ha, scale 0 to 100 (0 no effect, 100 complete control)) was 30, the “Plant response rating, Oat, Wild” value ([11]; 62 g ai/ha, scale 0 to 100 (0 no effect, 100 complete control)) was 65 and the “Plant response rating, Oat, Wild” value [11, 19] was 85. The “Plant response rating, Oat, Wild” value ([11]; 250 g ai/ha, scale 0 to 100 (0 no effect, 100 complete control)) was 90.
